One assay relates to 11β-HSD2 protein. Kind of assay: Immunoblot of 11β-HSD2 protein in prostate cancer cell lines. It counts as cell-based, human. As to the method:
(§1) For protein analysis, immunoblots were performed as described previously. Li et al., J Clin Endocrinol Metab 98, E1189-1197 (2013). Briefly, total cellular protein was extracted with ice cold RIPA lysis buffer (Sigma-Aldrich) containing protease inhibitors (Roche). 30-50 μg protein was separated by 8% SDS-PAGE gel and then transferred to a nitrocellulose membrane (Millipore). After incubating with the anti-11β-HSD2 antibody (Santa Cruz; 1:3000), anti-11β-HSD1 antibody (Santa Cruz; 1:1000), GR antibody (BD Biosciences; 1:1000), anti-Erlin-2 antibody (Cell Signaling Technology: 1:1000) or anti-AMFR antibody (Proteintech; 1:1000) overnight at 4° C., the appropriate secondary antibody was incubated for 1 hour at room temperature. The chemiluminescent detection system (Thermo Scientific) was used to detect the bands with peroxidase activity. An anti-β-actin antibody (Sigma-Aldrich; 1:5000) was used as a control for sample loading.
On the technique in general: Immunoblotting shows a protein as a band on a membrane.

A further assay deals with GR protein. Kind of assay: Immunoblot of GR protein in prostate cancer cell lines. It counts as cell-based, human. How it is done:
as §1

In assay [1] the test system is GR, HSD11B2, HSD11B1 transcripts. Kind of assay: qPCR of GR, HSD11B2 and HSD11B1 transcripts. It counts as cell-based, human. As to the method: LAPC4 cells were treated with Enz for 36 days and then seeded into 12 well plates coated with poly-DL-ornithine at 50% confluence. After incubation overnight, the cells were transfected with 11β-HSD2-FLAG plasmid for 48 hours by using the TranslT®-2020 Transfection Reagent (Mirus) according to the protocol provided by the manufacturer, then maintained in phenol-red-free medium with 5% Charcoal:Dextran-stripped FBS for 48 hours before being treated with the indicated drugs. Total RNA was extracted with a GenElute Mammalian Total RNA miniprep kit (Sigma-Aldrich) and 1 μg RNA was reverse-transcribed to cDNA with the iScript cDNA Synthesis Kit (Bio-Rad). An ABI 7500 Real-Time PCR machine (Applied Biosystems) was used to perform the qPCR analysis, using iTaq Fast SYBR Green Supermix with ROX (Bio-Rad) in 96-well plates at a final reaction volume of 10 μl. The qPCR analysis was carried out in triplicate with suitable primers. Each mRNA transcript was quantitated by normalizing the sample values to RPLP0 and to vehicle treated cells (for steroid treated cells). All gene expression studies were repeated in independent experiments.
(In general: Real-time PCR tracks product formation cycle by cycle.)

For another assay, the system named is serum corticosterone. Kind of assay: Mass spectrometry of corticosterone in mouse serum. It counts as in vivo. How it is done:
Mouse serum analysis. At the endpoint of the xenograft study, mouse serum was collected. 20 μl of mouse serum and internal standard (corticosterone-d8) were precipitated with 200 μl methanol. After centrifugation, the supernatant was transferred to HPLC vials prior to mass spectrometry analysis.
The LC-MS/MS system contains an ultra-pressure liquid chromatography system (Shimadzu Corporation, Japan) which is consisted of two LC-30AD pumps, a DGU-20A5R degasser, a CTO-30A column oven, SIL-30AC autosampler, and a system controller CBM-20A and coupled with a Qtrap 5500 mass spectrometer (AB Sciex). Data acquisition and processing were performed using Analyst® software (version 1.6.2) from ABSciex.
Steroids were ionized using electrospray ionization in positive mode. Quantification of analytes was performed using multiple reaction monitoring. The mass transitions for corticosterone, 11-dehydrocorticosterone, and internal standard are 347.3/121.0, 345.3/121.0, and 355.3/125.0, respectively. Separation of steroids was achieved using a Zorbax Eclipse plus C18 column (Agilent) using mobile phase consisting of (A) 0.2% formic acid in water and (B) 0.2% formic acid in (methanol:acetonitrile, 60:40) with a gradient program at a flow rate of 0.2 ml/min. Sample injection volume was 10 μl.

Where [2] appears, read: long-term Enz treatment, LAPC4 and VCaP.
Setting [3] is: enzalutamide treated 11β-HSD2 mice.
[4] abbreviates: enzalutamide treated vector mice.

Take `CNC(=O)c1ccc(N2C(=S)N(c3ccc(C#N)c(C(F)(F)F)c3)C(=O)C2(C)C)cc1F` [enzalutamide]: the 11β-HSD2 protein expression entry with 11β-HSD2 protein (AR-negative DU145 prostate cancer cell line) was “does not change 11β-HSD2 protein expression”. The 11β-HSD2 protein entry in the assay on 11β-HSD2 protein (LAPC4), in the assay on 11β-HSD2 protein (MDA-PCa-2b) and in the assay with 11β-HSD2 protein (VCaP) was “Loss of 11β-HSD2 protein” each time. Moreover, the GR protein result with GR protein (LAPC4) is “increase in GR protein”; in the assay on GR protein (VCaP and MDA-PCa-2b), “increase in GR protein”. Besides, in assay [1] (LAPC4, 24 hours (acute)), the “expression of GR, HSD11B2 or HSD11B1 transcripts” value is reported as “no acute effect on expression of GR, HSD11B2 or HSD11B1”. Further, the GR transcript entry in assay [1] (setting [2]) is reported as “GR transcript increases”. In assay [1] (setting [2]), the “HSD11B2 mRNA” value is given as “No suppression of HSD11B2 mRNA”. Besides, the results for the “serum corticosterone absolute concentration” value with serum corticosterone (setting [3]) and in the assay on serum corticosterone (setting [4]) were 867 pmol/mL and 873 pmol/mL, respectively. Also, the “serum percentage of corticosterone” value with serum corticosterone (setting [3]) is given as 99.85%; in the assay on serum corticosterone (setting [4]), 99.87%.
